Measured values reported in US20230013669A1, “Antibacterial Treatment Using a Cannabinoid and an Active Agent” (priority 2019, published 2023).
Where “and” joins values, the source holds several entries; their conditions need not be identical. Equal values may be shown once.

System: Acinetobacter baumannii ATCC 19606 (GN_034)
Assay: Synergy of cannabidiol with cell-wall disrupting agent (CBD MIC in combination, FICI)
Assay type: cell-based
Settings: for FICI range: CBD with Spero SPR206
Protocol: The compounds were stored short term at 4° C.
Analysis was performed using Microsoft Excel.

[1] = Example 6, GN_034, listed as CBD

C=C(C)C1CCC(C)=CC1c1c(O)cc(CCCCC)cc1O (stereo not shown) [Cannabidiol, 2-[3-methyl-6-(1-methylethenyl)-2-cyclohexen-1-yl]-5-pentyl-1,3-benzenediol]
1.0625: FICI (CBD with Ticarcillin at 4 μg/mL, Acinetobacter baumannii ATCC 19606)
0.625: FICI (CBD with Ticarcillin at 2 μg/mL, Acinetobacter baumannii ATCC 19606)
0.25-8: FICI range (1st of 3 experiments)
0.001 µg/mL: CBD MIC with Ceftazidime (Ceftazidime at 0.5 μg/mL as headed in Table 64, Acinetobacter baumannii ATCC 19606) | CBD MIC with Ceftazidime (Ceftazidime at 16 μg/mL (Table 66), Acinetobacter baumannii ATCC 19606) | CBD MIC with Colistin (Colistin at 1 μg/mL, Acinetobacter baumannii ATCC 19606) | CBD MIC with Ticarcillin (Ticarcillin at 16 μg/mL, Acinetobacter baumannii ATCC 19606) | CBD MIC with Ticarcillin (Ticarcillin at 32 μg/mL, Acinetobacter baumannii ATCC 19606) | CBD MIC with Ticarcillin (Ticarcillin at 64 μg/mL, Acinetobacter baumannii ATCC 19606)
>32 µg/mL: CBD MIC with Cefotetan (Cefotetan at 4 μg/mL) | CBD MIC with Cefotetan (Cefotetan at 8 μg/mL) | CBD MIC with Cefotetan (Cefotetan at 16 μg/mL) | CBD MIC with Cefotetan (Cefotetan at 32 μg/mL) | CBD MIC with Cefotetan (Cefotetan at 64 μg/mL) | CBD MIC with Cefotetan (Cefotetan at 128 μg/mL) | CBD MIC with Ceftazidime (Ceftazidime at 0.5 μg/mL (Table 66), Acinetobacter baumannii ATCC 19606) | CBD MIC with Ceftazidime (Ceftazidime at 1 μg/mL (Table 66), Acinetobacter baumannii ATCC 19606) | CBD MIC with Ceftazidime (Ceftazidime at 2 μg/mL (Table 66), Acinetobacter baumannii ATCC 19606)
4.004 and 4.002: FICI (CBD with Spero SPR206 at 1 μg/mL, 3rd of 3 experiments, CBD MIC taken as 256 μg/mL)
4 µg/mL: CBD MIC with Colistin (Colistin at 0.031 μg/mL, Acinetobacter baumannii ATCC 19606) | CBD MIC with Colistin at concentration 0.03125 μg/mL (Example 3, GN_034)
3: FICI (CBD with Spero SPR206 at 0.5 μg/mL, 3rd of 3 experiments, CBD MIC taken as 256 μg/mL)
0.0625 µg/mL: CBD MIC with Cefuroxime at concentration 64 μg/mL (Example 2, GN_034)
1: FICI (CBD with Spero SPR206 at 0.5 μg/mL, 1st of 3 experiments, CBD MIC taken as 256 μg/mL)
0.25: FICI (CBD with Spero SPR206 at […], 1st of 3 experiments, CBD MIC taken as 256 μg/mL)
16 µg/mL and 8 µg/mL: CBD MIC with Polymyxin B at concentration […] [1]
effective: activity of cannabidiol in combination with Polymyxin B (Example 1) | activity of cannabidiol combined with cefuroxime (Example 2) | activity of cannabidiol combined with colistin (Example 3) | activity of cannabidiol combined with octapeptin MCC_006442 (Example 4) | activity of cannabidiol combined with aztreonam (Example 5) | activity of cannabidiol combined with cefepime (Example 5) | activity of cannabidiol combined with Polymyxin B (Example 6) | activity of cannabidiol in combination with octapeptin MCC_006442 (Example 7) | activity of cannabidiol combined with cefuroxime (Example 12) | activity of cannabidiol combined with colistin (Example 14) | activity of cannabidiol combined with octapeptin MCC_006442 (Example 15) | activity of cannabidiol combined with aztreonam (Example 18) | activity of cannabidiol combined with cefepime (Example 19) | activity of cannabidiol combined with octapeptin C4 (Example 21) | activity of cannabidiol in combination with Spero Potentiator SPR741 (Example 22) | activity of cannabidiol in combination with Spero SPR206 (Example 22) | activity of cannabidiol in combination with octapeptin FADDI-287 (Example 23) | activity of cannabidiol in combination with MCC_8980 (Example 24)
0.5: FICI (CBD with Spero SPR206 at 0.25 μg/mL, 1st of 3 experiments, CBD MIC taken as 256 μg/mL)
0.5 µg/mL: CBD MIC with Spero SPR206 (Spero SPR206 at 1 μg/mL, 3rd of 3 experiments, listed as CBD)
YES: Synergy (Example 1, GN_034, cannabidiol + MCC_006636 (Polymyxin B), synergy when FICI≤0.5)
0.135: Average FICI score (Example 1, GN_034, cannabidiol + MCC_006636 (Polymyxin B))
0.63-16: FICI range (MIC table) (CBD with Ticarcillin, Acinetobacter baumannii ATCC 19606)
16: FICI (CBD with Spero SPR206 at 4 μg/mL, 3rd of 3 experiments, CBD MIC taken as 256 μg/mL) | FICI (CBD with Ticarcillin at 64 μg/mL, Acinetobacter baumannii ATCC 19606)
>256 µg/mL: CBD MIC with Cefotetan (Cefotetan at 4 μg/mL, Acinetobacter baumannii ATCC 19606) | CBD MIC with Cefotetan (Cefotetan at 8 μg/mL, Acinetobacter baumannii ATCC 19606) | CBD MIC with Cefotetan (Cefotetan at 16 μg/mL, Acinetobacter baumannii ATCC 19606) | CBD MIC with Cefotetan (Cefotetan at 32 μg/mL, Acinetobacter baumannii ATCC 19606) | CBD MIC with Cefotetan (Cefotetan at 64 μg/mL, Acinetobacter baumannii ATCC 19606) | CBD MIC with Cefotetan (Cefotetan at 128 μg/mL, Acinetobacter baumannii ATCC 19606) | CBD MIC with Ceftazidime (Ceftazidime at 0.015 μg/mL as headed in Table 64, Acinetobacter baumannii ATCC 19606) | CBD MIC with Ceftazidime (Ceftazidime at 0.031 μg/mL as headed in Table 64, Acinetobacter baumannii ATCC 19606) | CBD MIC with Ceftazidime (Ceftazidime at 0.062 μg/mL as headed in Table 64, Acinetobacter baumannii ATCC 19606) | CBD MIC with Cefuroxime at concentration 4 μg/mL (Example 2, GN_034) | CBD MIC with Cefuroxime at concentration 8 μg/mL (Example 2, GN_034) | CBD MIC with Aztreonam at concentration 0.5 μg/mL (Example 5, GN_034) | CBD MIC with Aztreonam at concentration 1 μg/mL (Example 5, GN_034) | CBD MIC with Aztreonam at concentration 2 μg/mL (Example 5, GN_034) | CBD MIC with Cefepime at concentration 0.25 μg/mL (Example 5, GN_034) | CBD MIC with Cefepime at concentration 0.5 μg/mL (Example 5, GN_034) | CBD MIC with Cefepime at concentration 1 μg/mL (Example 5, GN_034) | CBD MIC with Cefepime at concentration 2 μg/mL (Example 5, GN_034) | CBD MIC with Polymyxin B at concentration 0.015625 μg/mL (Example 6, GN_034) | CBD MIC with Polymyxin B at concentration 0.03125 μg/mL (Example 6, GN_034) | CBD MIC with Polymyxin B at concentration 0.0625 μg/mL (Example 6, GN_034)
4: FICI (CBD with Spero SPR206 at 2 μg/mL, 1st of 3 experiments, CBD MIC taken as 256 μg/mL) | FICI (CBD with Ticarcillin at 16 μg/mL, Acinetobacter baumannii ATCC 19606)
16 µg/mL and 32 µg/mL: CBD MIC with Cefuroxime at concentration 32 μg/mL (Example 2, GN_034, listed as CBD)
16 µg/mL: CBD MIC with Cefepime (Cefepime at 8 μg/mL) | CBD MIC with Ceftazidime (Ceftazidime at 0.25 μg/mL as headed in Table 64, Acinetobacter baumannii ATCC 19606) | CBD MIC with Ceftazidime (Ceftazidime at 8 μg/mL (Table 66), Acinetobacter baumannii ATCC 19606) | CBD MIC with Cefepime at concentration 8 μg/mL (Example 5, GN_034) | CBD MIC with Octapeptin C4 (Octapeptin C4 at 2 μg/mL, listed as CBD)
1.5-16: FICI range (3rd of 3 experiments)
0.0009766 µg/mL: CBD MIC with Cefuroxime at concentration 128 μg/mL (Example 2, GN_034) | CBD MIC with Colistin at concentration 1 μg/mL (Example 3, GN_034) | CBD MIC with Aztreonam at concentration 16 μg/mL (Example 5, GN_034) | CBD MIC with Polymyxin B at concentration 0.5 μg/mL (Example 6, GN_034)
8 µg/mL and 4 µg/mL: CBD MIC with Polymyxin B at concentration 0.25 μg/mL [1]
32 µg/mL: CBD MIC with Cefepime (Cefepime at 4 μg/mL) | CBD MIC with Ceftazidime (Ceftazidime at 4 μg/mL (Table 66), Acinetobacter baumannii ATCC 19606) | CBD MIC with Ceftazidime (Ceftazidime at […] as headed in Table 64, Acinetobacter baumannii ATCC 19606) | CBD MIC with Cefuroxime at concentration 16 μg/mL (Example 2, GN_034) | CBD MIC with Aztreonam at concentration 4 μg/mL (Example 5, GN_034) | CBD MIC with Aztreonam at concentration 8 μg/mL (Example 5, GN_034) | CBD MIC with Cefepime at concentration 4 μg/mL (Example 5, GN_034)
1.5: FICI (CBD with Spero SPR206 at […], 3rd of 3 experiments, CBD MIC taken as 256 μg/mL)
1 µg/mL: CBD MIC with Colistin (Colistin at 0.25 μg/mL, Acinetobacter baumannii ATCC 19606) | CBD MIC with Colistin (Colistin at […], Acinetobacter baumannii ATCC 19606) | CBD MIC with Colistin at concentration 0.25 μg/mL (Example 3, GN_034) | CBD MIC with Colistin at concentration […] (Example 3, GN_034)
8: FICI (CBD with Spero SPR206 at 2 μg/mL, 3rd of 3 experiments, CBD MIC taken as 256 μg/mL) | FICI (CBD with Spero SPR206 at 4 μg/mL, 1st of 3 experiments, CBD MIC taken as 256 μg/mL) | FICI (CBD with Ticarcillin at 32 μg/mL, Acinetobacter baumannii ATCC 19606)
2 µg/mL: CBD MIC with Colistin (Colistin at 0.062 μg/mL, Acinetobacter baumannii ATCC 19606) | CBD MIC with Colistin at concentration 0.0625 μg/mL (Example 3, GN_034)
2: FICI (CBD with Spero SPR206 at 0.25 μg/mL, 3rd of 3 experiments, CBD MIC taken as 256 μg/mL) | FICI (CBD with Spero SPR206 at 1 μg/mL, 1st of 3 experiments, CBD MIC taken as 256 μg/mL) | FICI (CBD with Ticarcillin at 8 μg/mL, Acinetobacter baumannii ATCC 19606)
